From patent publication US4036957A, “Phenoxy compounds in combinations to suppress gastric bleeding in aspirin therapy” (priority 1975, dated 1977)
Read-outs that look alike come from different tables or passages of the source.

Tests used:
[1] = tested on: aspirin-induced gastric bleeding; format: in vivo, cats; details: cat
Experimental: Fasted cats weighing […] were anesthetized with phenobarbital sodium (130 mg/kg, i.p.). Glyceryl guaiacolate was administered intravenously for a total of 2 hrs. beginning 60 min. prior to the topical application of the aspirin (10 mg) to the gastric mucosa. Throughout the experiment, artificial gastric juice (USP, pH 1.3) bathed the mucosa by means of the specially designed chamber. The number of bleeding sites occurring at various exposure sites were recorded at 15, 30 and 60 min. Glyceryl guaiacolate was given at doses of 10 and 30 mg/kg/hr via a previously cannulated jugular vein using an infusion pump (Harvard Apparatus Co., Model 1202). […] An important point is that with 30 mg/kg/hr, i.v., of glyercyl guaiacolate there was no bleeding at 30 min. compared with an average of 14 bleeding sites when no glyceryl guaiacolate was adminsitered. A total of 23 cats were used and there was a minimum of 24 aspirin exposure sites for each dose of glyceryl guaiacolate.

aspirin-induced bleeding = details: rat
Experimental: The effect of glyceryl guaiacolate (Compound 8) on aspirin-induced bleeding in rats was studied using the following procedure. Female Sprague-Dawley rats, weighing 140-160 g. and fasted for 24 hrs. on wire were divided into groups of 10 animals each. All animals were anesthetized with Metofane® and a ligature placed at the pyloric-duodenal junction. Groups serving as controls received normal saline (4.0 ml/kg, i.p.). Some groups received normal saline and in addition were given aspirin (375 mg/kg, p.o.) in artificial gastric juice; the remaining groups received aspirin in the same amount and also glyceryl guaiacolate 30 min. prior to the aspirin. The aspirin was administered in artificial gastric juice (USP, […]) in a total volume of 2 ml. to each rat. Following a recovery period of 1 hr. the animals received saline, aspirin and glyceryl guaiacolate in the amounts and by the routes indicated. In most of the experiments, 90 min. following aspirin the rats were sacrificed by cervical dislocation. The stomachs were removed and gastric contents collected for further analysis. […] Hemoglobin loss produced by the aspirin was determined by the colorimetric method of Bing and Baker (J. Biol. Chem. 92: 589, 1931). The condition of the gastric mucosa was also assessed by determining the incidence and severity of damage using the scoring system described hereinabove to obtain the "Gastric Bleeding Index".
Following the procedure of Example 26, methocarbamol (Compound 3 ) was tested further in rats via intraperitoneal and intraduodenal administration.

[2] = tested on: aspirin-induced gastric bleeding; experiment: Prevention of aspirin-induced gastric bleeding in pyloric-ligated rats, i.p. test compound (Examples 1-22); format: in vivo, Female Sprague-Dawley rats; details: rat, aspirin 375 mg/kg p.o.; for Gastric Bleeding Index: score 0 to 40
Experimental: The prevention of aspirin-induced bleeding in rats was determined by the following procedure. Female Sprague-Dawley rats weighing 150-180 g. were fasted for 24 hours on wire and divided into groups of six animals each. The rats were anesthetized and a ligature placed at the pyloric-duodenal junction. Groups serving as controls received normal saline (4.0 ml/kg, i.p.). […] Some of the compounds were tested at 50 mg/kg, i.p. The rats were sacrificed 60 min. after aspirin administration by cervical dislocation. The volume of the gastric contents was determined and compared against that produced with the same amount of aspirin for change in volume. […] (Gradation between 0 to 40 is on an even scale).

[3] = tested on: aspirin-induced gastric bleeding; experiment: Aspirin-induced gastric bleeding in Cr51 labeled Heidenhain pouch dogs, oral; format: in vivo; details: dog
Experimental: Methocarbamol (Compound 3) and Metaxalone (Compound 15) were evaluated for their effectiveness upon oral administration against aspirin-induced gastric bleeding in dogs. Three female chronic Heindehain pouch dogs were used. Red blood cells from each dog were labeled with Cr^51. The dogs were fasted 24 hours prior to any study and three days elapsed between studies. On experimental days each fundic pouch was rinsed with tepid tap water and then filled with 10 ml. of normal saline. After 30 minutes the saline was replaced with 10 ml. of artificial gastric juice (USP, pH 1.3). The dogs were given Compound 3 (200 mg/kg) or Compound 15 (50 and 100 mg/kg) or placebo (starch) orally in gelatin capsules. The 10 ml. of gastric juice was removed from the pouch after 60 minutes and replaced with another 10 ml. of juice containing 100 mg. of aspirin (80 mesh). This was likewise removed after 60 minutes. All samples collected from the pouches were counted for radio-activity using a deep-well counter. From the amount of radio-activity present in the gastric samples, the loss of blood into the pouch was determined. The results are shown in Table 3 and show the effectiveness of orally administering Compounds 3 and 15 in preventing aspirin-induced gastric bleeding.

[4] = 50 mg/kg i.p., aspirin ca 375 p.o., Series 2
[5] = 50 mg/kg i.p., aspirin ca 375 p.o., Series 2, ± S.E.
[6] = 50 mg/kg intraduodenal, aspirin ca 375 p.o.
[7] = 50 mg/kg intraduodenal, aspirin ca 375 p.o., ± S.E.
[8] = 50 mg/kg oral, aspirin ca 375 p.o., Series 3
[9] = 50 mg/kg oral, aspirin ca 375 p.o., Series 3, ± S.E.
[10] = 100 mg/kg i.p., aspirin ca 375 p.o., Series 1, ± S.E., P <0.05
[11] = 100 mg/kg i.p., aspirin ca 375 p.o., Series 1, P <0.05
[12] = 100 mg/kg intraduodenal, aspirin ca 375 p.o., ± S.E., P <0.05
[13] = 100 mg/kg intraduodenal, aspirin ca 375 p.o., P <0.05
[14] = 100 mg/kg oral, aspirin ca 375 p.o., Series 3
[15] = 100 mg/kg oral, aspirin ca 375 p.o., Series 3, ± S.E.
[16] = 200 mg/kg i.p., aspirin ca 375 p.o., Series 2, ± S.E., P <0.05
[17] = 200 mg/kg i.p., aspirin ca 375 p.o., Series 2, P <0.05
[18] = 200 mg/kg intraduodenal, aspirin ca 375 p.o., ± S.E., P <0.05
[19] = 200 mg/kg intraduodenal, aspirin ca 375 p.o., P <0.05
[20] = 200 mg/kg oral, aspirin ca 375 p.o., Series 3, ± S.E.
[21] = ip, 1 h, 100 mg/kg i.p., read-out: Percent Decrease in Mucosal Bleeding vs Control
[22] = 100 mg/kg i.p. (column head states no dose)
[23] = 50 mg/kg i.p., aspirin 375 p.o.
[24] = 50 mg/kg i.p., aspirin 375 p.o., ± S.E.
[25] = 100 mg/kg intraduodenal, aspirin 375 p.o.
[26] = 100 mg/kg intraduodenal, aspirin 375 p.o., ± S.E., P <0.05
[27] = 200 mg/kg i.p., aspirin 375 p.o., ± S.E., P <0.05
[28] = 200 mg/kg intraduodenal, aspirin 375 p.o., ± S.E., P <0.05
[29] = 400 mg/kg intraduodenal, aspirin 375 p.o., ± S.E., P <0.05

COc1ccccc1OCC(O)CO (stereo not drawn) [Compound 8, 3-(2-methoxyphenoxy)-1,2-propanediol]
bleeding at 30 min ([1]; 30 mg/kg/hr i.v., aspirin 10 mg topical): no bleeding | gastric bleeding produced by aspirin with increasing doses ([1]; 10 and 30 mg/kg/hr i.v.): correspondingly reduced | effect on pH (gastric) (aspirin-induced bleeding): a similar effect on pH was not observed | volume of gastric secretion (in words) (aspirin-induced bleeding): significant reduction | Gastric Bleeding Index (aspirin-induced bleeding; [4]): 26.0 ± 2.6 | Percent Decrease In Mucosal Hemorrhage vs. Control (aspirin-induced bleeding; [4]): 13.3% | Total Hemoglobin Loss (aspirin-induced bleeding; [5]): 26.7 ± 3.1 mg | Volume Gastric Secretion (aspirin-induced bleeding; [5]): 6.4 ± 0.4 mL | Gastric Bleeding Index (aspirin-induced bleeding; [6]): 18.0 ± 4.1 | Percent Decrease In Mucosal Hemorrhage vs. Control (aspirin-induced bleeding; [6]): 10.0% | Total Hemoglobin Loss (aspirin-induced bleeding; [7]): 12.4 ± 2.3 mg | Volume Gastric Secretion (aspirin-induced bleeding; [7]): 5.0 ± 0.2 mL | Gastric Bleeding Index (aspirin-induced bleeding; [8]): 30.5 ± 2.4 | Percent Decrease In Mucosal Hemorrhage vs. Control (aspirin-induced bleeding; [8]): 14.2% | Total Hemoglobin Loss (aspirin-induced bleeding; [9]): 29.4 ± 3.2 mg | Volume Gastric Secretion (aspirin-induced bleeding; [9]): 8.0 ± 0.3 mL | Total Hemoglobin Loss (aspirin-induced bleeding; [10]): 8.2 ± 2.5 mg | Volume Gastric Secretion (aspirin-induced bleeding; [10]): 4.2 ± 0.4 mL | Gastric Bleeding Index (aspirin-induced bleeding; [11]): 6.5 ± 4.7 | Percent Decrease In Mucosal Hemorrhage vs. Control (aspirin-induced bleeding; [11]): 77% | Total Hemoglobin Loss (aspirin-induced bleeding; [12]): 7.7 ± 1.2 mg | Volume Gastric Secretion (aspirin-induced bleeding; [12]): 3.9 ± 0.2 mL | Gastric Bleeding Index (aspirin-induced bleeding; [13]): 9.5 ± 2.5 | Percent Decrease In Mucosal Hemorrhage vs. Control (aspirin-induced bleeding; [13]): 57.5% | Gastric Bleeding Index (aspirin-induced bleeding; [14]): 21.0 ± 2.7 | Percent Decrease In Mucosal Hemorrhage vs. Control (aspirin-induced bleeding; [14]): 41.5% | Total Hemoglobin Loss (aspirin-induced bleeding; [15]): 26.2 ± 4.6 mg | Volume Gastric Secretion (aspirin-induced bleeding; [15]): 6.5 ± 0.3 mL | Total Hemoglobin Loss (aspirin-induced bleeding; [16]): 14.5 ± 3.9 mg | Volume Gastric Secretion (aspirin-induced bleeding; [16]): 4.1 ± 0.4 mL | Gastric Bleeding Index (aspirin-induced bleeding; [17]): 6.0 ± 2.1 | Percent Decrease In Mucosal Hemorrhage vs. Control (aspirin-induced bleeding; [17]): 80.0% | Total Hemoglobin Loss (aspirin-induced bleeding; [18]): 4.4 ± 1.0 mg | Volume Gastric Secretion (aspirin-induced bleeding; [18]): 3.5 ± 0.3 mL | Gastric Bleeding Index (aspirin-induced bleeding; [19]): 2.0 ± 1.1 | Percent Decrease In Mucosal Hemorrhage vs. Control (aspirin-induced bleeding; [19]): 90.0% | Percent Decrease In Mucosal Hemorrhage vs. Control (aspirin-induced bleeding; 200 mg/kg oral, aspirin ca 375 p.o., Series 3): 46.5% | Total Hemoglobin Loss (aspirin-induced bleeding; [20]): 20.2 ± 1.5 mg | Volume Gastric Secretion (aspirin-induced bleeding; [20]): 6.5 ± 0.5 mL | Gastric Bleeding Index (aspirin-induced bleeding; 200 mg/kg oral, aspirin ca 375 p.o., Series 3, P <0.05): 19.0 ± 3.9 | loss of blood into the gastric contents (aspirin-induced bleeding; 100 and 200 mg/kg): markedly reduced | aspirin-induced gastric irritation (aspirin-induced bleeding; 100 and 200 mg/kg by any route): markedly reduced | change in vivo at 50 mg/kg ([2]; ip, 1 h, 50 mg/kg i.p., read-out: Percent Decrease in Mucosal Bleeding vs Control): -57% | change in vivo at 100 mg/kg [2, 21]: -40% | Gastric Bleeding Index [2, 22]: 26.1

COc1ccccc1OCC(O)COC(N)=O (stereo not drawn) [Compound 3, 3-(o-methoxyphenoxy)-1,2-propanediol-1-carbamate]
% Protection ([3]; 200 mg/kg p.o.): 79% | Mucosal Blood Loss, HCl + Aspirin ([3]; 200 mg/kg p.o., ± S.E.): 6.6 ± 3.1 µL | Mucosal Blood Loss, HCl ([3]; 200 mg/kg p.o., ± S.E., without aspirin): 3.5 ± 0.7 µL | % Change from Control (mucosal blood loss) ([3]; 200 mg/kg p.o., P > .05): +88% | preventing aspirin-induced gastric bleeding (in words) ([3]; oral): effectiveness | Gastric Bleeding Index (aspirin-induced bleeding; [23]): 34 ± 2 | Percent Decrease In Mucosal Hemorrhage vs. Control (aspirin-induced bleeding; [23]): none | Total Hemoglobin Loss (aspirin-induced bleeding; [24]): 22.4 ± 2.4 mg | Volume Gastric Secretion (aspirin-induced bleeding; [24]): 6.2 ± 0.5 mL | Percent Decrease In Mucosal Hemorrhage vs. Control (aspirin-induced bleeding; 100 mg/kg i.p., aspirin 375 p.o.): 62% | Volume Gastric Secretion (aspirin-induced bleeding; 100 mg/kg i.p., aspirin 375 p.o., ± S.E.): 5.5 ± 0.3 mL | Total Hemoglobin Loss (aspirin-induced bleeding; 100 mg/kg i.p., aspirin 375 p.o., ± S.E., P <0.05): 11.6 ± 3.6 mg | Gastric Bleeding Index (aspirin-induced bleeding; 100 mg/kg i.p., aspirin 375 p.o., P <0.05): 13 ± 6 | Gastric Bleeding Index (aspirin-induced bleeding; [25]): 24 ± 3 | Percent Decrease In Mucosal Hemorrhage vs. Control (aspirin-induced bleeding; [25]): 27% | Total Hemoglobin Loss (aspirin-induced bleeding; [26]): 27.8 ± 0.1 mg | Volume Gastric Secretion (aspirin-induced bleeding; [26]): 5.0 ± 0.1 mL | Percent Decrease In Mucosal Hemorrhage vs. Control (aspirin-induced bleeding; 200 mg/kg i.p., aspirin 375 p.o.): 97% | Total Hemoglobin Loss (aspirin-induced bleeding; [27]): 1.5 ± 0.5 mg | Volume Gastric Secretion (aspirin-induced bleeding; [27]): 3.7 ± 0.4 mL | Gastric Bleeding Index (aspirin-induced bleeding; 200 mg/kg i.p., aspirin 375 p.o., P <0.05): 1 ± 1 | Percent Decrease In Mucosal Hemorrhage vs. Control (aspirin-induced bleeding; 200 mg/kg intraduodenal, aspirin 375 p.o.): 67% | Total Hemoglobin Loss (aspirin-induced bleeding; [28]): 7.0 ± 2.8 mg | Volume Gastric Secretion (aspirin-induced bleeding; [28]): 3.5 ± 0.6 mL | Gastric Bleeding Index (aspirin-induced bleeding; 200 mg/kg intraduodenal, aspirin 375 p.o., P <0.05): 11 ± 6 | Percent Decrease In Mucosal Hemorrhage vs. Control (aspirin-induced bleeding; 400 mg/kg intraduodenal, aspirin 375 p.o.): 99% | Total Hemoglobin Loss (aspirin-induced bleeding; [29]): 5.1 ± 3.6 mg | Volume Gastric Secretion (aspirin-induced bleeding; [29]): 1.3 ± 0.1 mL | Gastric Bleeding Index (aspirin-induced bleeding; 400 mg/kg intraduodenal, aspirin 375 p.o., P <0.05): 0.4 ± 1 | reducing bleeding (in words) (aspirin-induced bleeding; one part by weight methocarbamol to 3.75 parts aspirin): significantly effective | change in vivo at 100 mg/kg [2, 21]: -43% | change in vivo at 100 mg/kg ([2]; ip, 100 mg/kg i.p. (column head states no dose), read-out: Vol. % Decrease in Gastric Secretion): -18.3% | Gastric Bleeding Index [2, 22]: 21.7
